US9809623B2, “α4β7 peptide monomer and dimer antagonists” (Protagonist Therapeutics, Inc., priority 2014, dated 2017)
Numbered stars: 1 amine (or outer) side, 2 acyl side, 3 side chain; on linkers, the order of the positions; unused ones are H or OH. Bridge positions count the residues as written; N and C are the ends. Square brackets hold non-standard residues; d marks the D form. Peptide text beside a SMILES is read from it. I, II: the chains in the order shown. 2Nal = N[C@@H](Cc1ccc2ccccc2c1)C(=O)O; Diglycolyl = O=C(COCC(=O)[*:2])[*:1]; NMeR = CN[C@@H](CCCNC(=N)N)C(=O)O; Tic = O=C(O)[C@@H]1Cc2ccccc2CN1; β3hE = N[C@@H](CCC(=O)O)CC(=O)O; Pen = CC(C)(S)[C@H](N)C(=O)O

Key:
α4β7 [1] = target: α4β7 (Homo sapiens, UniProt P13612+P26010); test: α4β7-MAdCAM Cell Adhesion Assay (RPMI 8866 human cells); assay type: cell-based; design: host or cells: RPMI 8866 human B lymphoblastoid cells; conditions: Table 3-B, Potency (α4β7); range classes; read-out: α4β7 cell (Hu) IC50
Method in brief: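 Washed RPMI 8866 cells (200,000/well) in DMEM with 0.1% BSA, 10 mM HEPES pH 7, 1 mM MnCl2 adhered to rh MAdCAM-1/Fc-coated wells with serially diluted peptides, 30-45 min at 37 °C. After three washes, bound cells quantified by MTT, A570, cell-free background subtracted for dose response.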

α4β1 = target: T1, α4β1 (Homo sapiens, UniProt P05556+P13612, DEL729-798); test: α4β1-VCAM Competition ELISA; assay type: binding; conditions: Table 3-B, Selectivity (α4β1); range classes; read-out: α4β1 ELISA IC50
T1 construct: purchased R&D Systems 5668-A4
T1 sequence (P13612 34-977 limits assumed, stated change not applied): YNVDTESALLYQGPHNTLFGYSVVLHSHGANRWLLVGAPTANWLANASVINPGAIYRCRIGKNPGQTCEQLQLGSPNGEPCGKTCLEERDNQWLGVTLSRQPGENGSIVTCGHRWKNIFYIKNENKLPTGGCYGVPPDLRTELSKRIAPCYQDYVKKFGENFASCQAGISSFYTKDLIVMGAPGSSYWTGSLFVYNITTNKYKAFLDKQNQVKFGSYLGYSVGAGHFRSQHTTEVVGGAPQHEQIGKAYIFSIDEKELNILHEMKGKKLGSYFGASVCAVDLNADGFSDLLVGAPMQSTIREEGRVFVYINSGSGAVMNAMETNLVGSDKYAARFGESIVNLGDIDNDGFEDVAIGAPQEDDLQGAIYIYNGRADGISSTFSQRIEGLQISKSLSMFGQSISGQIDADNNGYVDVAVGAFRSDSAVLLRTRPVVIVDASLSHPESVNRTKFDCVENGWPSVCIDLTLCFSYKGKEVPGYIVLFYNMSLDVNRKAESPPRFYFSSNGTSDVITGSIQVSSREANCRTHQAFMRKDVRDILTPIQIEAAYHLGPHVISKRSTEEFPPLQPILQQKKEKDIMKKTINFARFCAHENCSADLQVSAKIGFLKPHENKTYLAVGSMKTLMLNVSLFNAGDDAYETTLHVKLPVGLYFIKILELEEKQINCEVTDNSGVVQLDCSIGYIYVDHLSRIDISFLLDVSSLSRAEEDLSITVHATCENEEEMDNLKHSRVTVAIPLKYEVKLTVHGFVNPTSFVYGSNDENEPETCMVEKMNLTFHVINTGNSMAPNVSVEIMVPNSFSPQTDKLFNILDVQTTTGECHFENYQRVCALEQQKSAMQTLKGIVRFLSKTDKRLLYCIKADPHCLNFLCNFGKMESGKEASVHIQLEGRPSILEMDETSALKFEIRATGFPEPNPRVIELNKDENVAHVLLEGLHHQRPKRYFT
T1 sequence (P05556 21-728 limits assumed, stated change not applied): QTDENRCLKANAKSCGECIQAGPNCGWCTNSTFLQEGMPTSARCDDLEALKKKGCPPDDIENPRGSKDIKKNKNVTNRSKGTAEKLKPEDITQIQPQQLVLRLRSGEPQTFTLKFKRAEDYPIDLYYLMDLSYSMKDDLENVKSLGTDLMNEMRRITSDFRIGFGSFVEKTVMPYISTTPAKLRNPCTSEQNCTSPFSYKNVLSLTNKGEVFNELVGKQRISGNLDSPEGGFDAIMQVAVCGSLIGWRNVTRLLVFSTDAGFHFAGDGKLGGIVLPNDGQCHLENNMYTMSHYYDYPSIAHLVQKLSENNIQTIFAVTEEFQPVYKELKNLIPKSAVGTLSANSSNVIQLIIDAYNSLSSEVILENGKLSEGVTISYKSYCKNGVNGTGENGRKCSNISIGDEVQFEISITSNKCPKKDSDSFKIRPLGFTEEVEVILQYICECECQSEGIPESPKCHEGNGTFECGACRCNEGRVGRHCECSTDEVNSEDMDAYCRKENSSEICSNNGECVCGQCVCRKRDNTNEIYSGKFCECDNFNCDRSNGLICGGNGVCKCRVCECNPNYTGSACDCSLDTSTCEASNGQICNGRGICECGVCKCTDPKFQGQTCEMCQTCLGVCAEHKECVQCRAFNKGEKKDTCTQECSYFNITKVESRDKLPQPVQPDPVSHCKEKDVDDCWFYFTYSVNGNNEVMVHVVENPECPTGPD
Procedure: A Nunc MaxiSorp plate was coated with rh VCAM-1/CD106 Fc chimera (R&D #862-VC) at 400 ng/well in 50 ul per well in 1×PBS and incubated overnight at 4° C. The solution was removed by shaking and then blocked with 250 ul of 1% BSA in 1×PBS per well. The wells were then incubated at room temperature for 1 hr with shaking. Each well was then washed once with wash buffer (50 mM Tris-HCl pH7.6, 100 mM NaCL, 1 mM MnCl2 or MgCl2, 0.05% Tween-20). 25 ul of serial dilutions of peptides starting at 200 μM in assay buffer (Assay buffer: 50 mM Tris-HCl pH7.6, 100 mM NaCl, 1 mM MnCl2 or MgCl2, 0.05% Tween-20) was added to each well. Additionally, 25 ul of α4β1 (R&D Systems #5668-A4) was added to each well at a fixed concentration of 120 nM. The final peptide and α4β1 concentrations were 100 μM and 60 nM, respectively. The plates were then incubated at 37° C. for 2 hr. The solution was then removed by shaking, and each well was washed three times with wash buffer. 50 ul of 9F10 antibody at 4 ug/ml (purified mouse anti-human CD49d, BD Bioscience Cat#555502) was then added to each well, and the plate was incubated at room temperature for 1 hr with shaking. The solution was again removed by shaking, and each well was washed three times with wash buffer. 50 ul of peroxidase-conjugated AffiniPure Goat anti-mouse IgG (Jackson immune research cat #115-035-003) diluted in 1:5000 in assay buffer was added to each well. The plate was incubated at room temperature for 30 min with shaking. Each well was then washed 3 times with wash buffer. 100 ul of TMB was then added to each well and closely observe during developing time. The reaction was stepped with 2N H2SO4 and absorbance was read at 450 nm.

α4β7 [2] = target: T2, α4β7 (Mus musculus, UniProt P26011+Q00651); test: α4β7 Cell Adhesion Assay (Mouse), TK1 cells; assay type: cell-based; conditions: Table 3-B, Potency (α4β7); range classes; read-out: α4β7 cell(MU) IC50
T2 construct: host or cells: TK1 mouse T cells
T2 sequence (Q00651 34-1039 limits assumed): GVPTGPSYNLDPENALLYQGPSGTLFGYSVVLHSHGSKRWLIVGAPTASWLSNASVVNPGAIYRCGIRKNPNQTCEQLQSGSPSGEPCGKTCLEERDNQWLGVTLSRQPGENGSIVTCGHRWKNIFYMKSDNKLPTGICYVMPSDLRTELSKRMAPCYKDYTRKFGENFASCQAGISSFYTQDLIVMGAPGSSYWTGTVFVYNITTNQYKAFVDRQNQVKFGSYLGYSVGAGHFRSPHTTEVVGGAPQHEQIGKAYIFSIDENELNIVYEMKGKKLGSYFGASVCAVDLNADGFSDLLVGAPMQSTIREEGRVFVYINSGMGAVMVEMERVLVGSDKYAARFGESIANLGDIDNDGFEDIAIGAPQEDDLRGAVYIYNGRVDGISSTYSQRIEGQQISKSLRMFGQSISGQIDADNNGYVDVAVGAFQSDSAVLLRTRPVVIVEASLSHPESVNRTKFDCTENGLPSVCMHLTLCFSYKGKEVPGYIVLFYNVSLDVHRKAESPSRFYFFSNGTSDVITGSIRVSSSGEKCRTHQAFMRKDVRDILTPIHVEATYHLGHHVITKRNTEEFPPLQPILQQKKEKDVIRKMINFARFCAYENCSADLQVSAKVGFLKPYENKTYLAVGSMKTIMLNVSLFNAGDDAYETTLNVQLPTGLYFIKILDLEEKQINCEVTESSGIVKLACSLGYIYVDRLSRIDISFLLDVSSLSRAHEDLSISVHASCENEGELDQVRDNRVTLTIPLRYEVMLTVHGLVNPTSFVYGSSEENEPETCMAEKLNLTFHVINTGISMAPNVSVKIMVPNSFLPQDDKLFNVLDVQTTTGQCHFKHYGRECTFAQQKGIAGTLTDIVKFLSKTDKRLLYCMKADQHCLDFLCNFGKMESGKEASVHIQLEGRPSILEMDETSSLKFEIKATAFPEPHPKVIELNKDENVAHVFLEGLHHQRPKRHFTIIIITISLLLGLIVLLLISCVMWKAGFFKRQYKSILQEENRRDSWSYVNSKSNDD
T2 sequence (P26011 20-806): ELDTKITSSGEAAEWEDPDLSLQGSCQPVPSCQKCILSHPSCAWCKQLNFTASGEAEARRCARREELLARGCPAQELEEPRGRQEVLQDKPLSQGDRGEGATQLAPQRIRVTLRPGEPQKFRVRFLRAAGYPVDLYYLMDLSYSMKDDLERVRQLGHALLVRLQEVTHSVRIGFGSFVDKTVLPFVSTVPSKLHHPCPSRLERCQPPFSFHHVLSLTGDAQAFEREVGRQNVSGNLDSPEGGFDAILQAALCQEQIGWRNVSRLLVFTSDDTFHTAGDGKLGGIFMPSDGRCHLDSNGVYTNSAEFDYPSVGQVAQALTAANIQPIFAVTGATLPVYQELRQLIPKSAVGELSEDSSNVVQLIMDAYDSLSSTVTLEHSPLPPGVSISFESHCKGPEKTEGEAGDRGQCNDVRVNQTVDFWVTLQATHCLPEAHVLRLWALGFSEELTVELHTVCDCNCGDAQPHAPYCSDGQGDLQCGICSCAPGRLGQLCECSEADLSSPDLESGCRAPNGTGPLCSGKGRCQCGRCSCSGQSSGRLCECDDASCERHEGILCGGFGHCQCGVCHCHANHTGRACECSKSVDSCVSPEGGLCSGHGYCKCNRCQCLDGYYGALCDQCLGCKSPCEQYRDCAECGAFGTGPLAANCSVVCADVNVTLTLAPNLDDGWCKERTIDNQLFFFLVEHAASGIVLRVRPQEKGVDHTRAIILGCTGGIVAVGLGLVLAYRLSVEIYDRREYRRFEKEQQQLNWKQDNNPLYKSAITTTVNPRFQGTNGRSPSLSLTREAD
Procedure: TK1 cells (ATCC # ATCC-CRL-2396) were cultured in RPMI 1640 with 2 mM L-glutamine adjusted to contain 1.5 g/L sodium bicarbonate, 4.5 g/L glucose, 10 mM HEPES, and 1.0 mM sodium pyruvate (ATCC#30-2001) and supplemented with 0.1 mM non-essential amino acids, (ATCC #30-2116) 0.05 mM 2-mercaptoethanol (Invitrogen #21985) and 10% serum (Fetal Bovine Serum, Invitrogen #16140-071), and Penicillin-Streptomycin (Invitrogen #15140-122) at 100 units of penicillin and 100 μg of streptomycin per ml. The cells were washed two times in DMEM medium (ATCC #30-2002) supplemented with 0.1% BSA, 10 mM HEPES pH 7 and 1 mM MnCl2. The cells were re-suspended in supplemented DMEM medium at a density of 4×10^6 cells/ml.
A Nunc MaxiSorp plate was coated with Recombinant human MAdCAM-1 Fc Chimera (R&D #6065-MC) at 200 ng per well in 100 μl per well in 1×PBS and incubated at 4° C. overnight. The solution was then removed by shaking, blocked with 250 ul per well PBS containing 1% BSA, and incubated at 37° C. for 1 hr. The solution was removed by shaking. DATK 32 (anti-mouse α4β7) and peptides were diluted by serial dilution in a final volume of 50 ul per well (2× concentration). To each well, 50 ul of cells (200,000 cells) are added and the plate is incubated at 37° C., 5% CO2 for 30-45 min to allow cell adhesion. The plate was manually washed three times with supplemented DMEM, 100 ul per wash. After the final wash, 100 ul/well of supplemented DMEM and […] of MTT reagent (ATTC cat#30-1010K) was added to each well. Wells were incubated at 37° C. with 5% CO2 for 2-3 hrs until purple precipitate was visible. 100 μl of Detergent Reagent (ATTC cat#30-1010K) was added to each well. The plate was then wrapped with Para film to prevent evaporation, and left overnight at room temperature in the dark. The plate was shaken for 5 min and the absorbance at 570 nm was measured. To calculate the dose response, the absorbance value of control wells not containing cells was subtracted from each test well.

[3] = tested on: cell types in human whole blood; test: FACS binding specificity in human whole blood; assay type: cell-based; conditions: 1 nM, 1 mM MnCl2
Procedure: To further evaluate the selectivity of Peptide X in human blood, the fluorescent dye Alexa 647 was conjugated to Peptide X at the same position used for attaching biotin. […] Heparinized human whole blood was supplemented with 1 mM MnCl2, and stained with the Peptide X-Alexa 647 conjugate or biotinylated vedolizumab for 1 hour at room temperature. The samples were fixed (red blood cells lysed) and washed. The vedolizumab samples were stained separately with streptavidin Alexa 647 for stain for 30 minutes at room temperature. FACS analysis was used to assess binding of the peptide or vedolizumab to a broad panel of cell types including NK cells, basophils, monocytes, eosinophils, neutrophils, CD4 naïve T cells, CD4 memory T cells, CD8 naïve T cells, CD8 memory T cells, and B cells. […] The binding specificity for vedolizmab shown in Table 7 is also very similar to that reported in the literature (Soler et al, JPET 330:864-875, 2009).

Question: Which IC50 (α4β7 [1]) does the source give for CC(=O)N[C@@H]1C(=O)N(C)[C@@H](CCCNC(=N)N)C(=O)N[C@@H](CO)C(=O)N[C@@H](CC(=O)O)C(=O)N[C@@H]([C@@H](C)O)C(=O)N[C@@H](CC(C)C)C(=O)N[C@H](C(=O)N[C@@H](Cc2ccc3ccccc3c2)C(=O)N[C@@H](CCC(=O)O)CC(N)=O)C(C)(C)SSC1(C)C [compound 155] (Ac-[Pen][NMeR]SDTL[Pen][2Nal][β3hE]-NH2; disulfide 1-7) here?
Answer: The IC50 was 25 to 50 nM.

Question: And the IC50 (α4β1)?
Answer: The IC50 was 1 to 10 µM.

Question: What about the IC50 (α4β7 [2]) of the same molecule?
Answer: Its IC50 is 25 to 50 nM.

Question: What does the source list for CC(=O)N[C@@H]1C(=O)N(C)[C@@H](CCCNC(=N)N)C(=O)N[C@@H](CO)C(=O)N[C@@H](CC(=O)O)C(=O)N[C@@H]([C@@H](C)O)C(=O)N[C@@H](CC(C)C)C(=O)N[C@H](C(=O)N2Cc3ccccc3C[C@H]2C(=O)N[C@@H](CCC(=O)O)CC(N)=O)C(C)(C)SSC1(C)C [compound 154] (Ac-[Pen][NMeR]SDTL[Pen][Tic][β3hE]-NH2; disulfide 1-7)?
Answer: IC50 (α4β7 [1]): 100 to 500 nM; IC50 (α4β1): 1 to 10 µM; IC50 (α4β7 [2]): 1000 to 10000 nM

Question: CC(=O)N[C@@H]1C(=O)N(C)[C@@H](CCCNC(=N)N)C(=O)N[C@@H](CO)C(=O)N[C@@H](CC(=O)O)C(=O)N[C@@H]([C@@H](C)O)C(=O)N[C@@H](CC(C)C)C(=O)N[C@H](C(=O)N[C@@H](Cc2c[nH]c3ccccc23)C(=O)N[C@@H](CCC(=O)O)CC(=O)O)C(C)(C)SSC1(C)C [compound 146] (Ac-[Pen][NMeR]SDTL[Pen]W[β3hE]-OH; disulfide 1-7) was tested. Which IC50 (α4β7 [1]) did it give?
Answer: Its IC50 is 50 to 100 nM.

Question: And the IC50 (α4β1)?
Answer: Its IC50 is 1 to 10 µM.

Question: What about the IC50 (α4β7 [2]) of the same molecule?
Answer: Its IC50 is 50 to 100 nM.

Question: With COC(=O)CC[C@H](NC(=O)[C@H](Cc1c[nH]c2ccccc12)NC(=O)[C@H]1NC(=O)[C@H](CC(C)C)NC(=O)[C@H]([C@@H](C)O)NC(=O)[C@H](CC(=O)O)NC(=O)[C@H](CO)NC(=O)[C@H](CCCNC(=N)N)N(C)C(=O)[C@@H](NC(C)=O)C(C)(C)SSC1(C)C)C(=O)N[C@H](CCCCNC(=O)COCC(=O)NCCCC[C@@H](NC(=O)[C@H](CCC(=O)OC)NC(=O)[C@H](Cc1c[nH]c2ccccc12)NC(=O)[C@H]1NC(=O)[C@H](CC(C)C)NC(=O)[C@H]([C@@H](C)O)NC(=O)[C@H](CC(=O)O)NC(=O)[C@H](CO)NC(=O)[C@H](CCCNC(=N)N)N(C)C(=O)[C@@H](NC(C)=O)C(C)(C)SSC1(C)C)C(N)=O)C(N)=O [compound 86] (I: Ac-[Pen][NMeR]SDTL[Pen]WE(OMe)[dK]-NH2 / II: Ac-[Pen][NMeR]SDTL[Pen]WE(OMe)[dK]-NH2; disulfide I:1-I:7, II:1-II:7; linker I:10-II:10 via Diglycolyl) as the molecule, how does the IC50 (α4β7 [1]) read?
Answer: The IC50 was less than 10 nM.

Question: What about the IC50 (α4β7 [2]) of the same molecule?
Answer: The IC50 was less than 10 nM.

Question: For vedolizumab [reference compound], which “Percent positive staining, Basophils” value [3] is on record?
Answer: The value was 86%.

Question: What about the “Percent positive staining, CD4 memory T cells” value [3] of the same molecule?
Answer: The value was 22%.

Question: And the “Percent positive staining, CD4 naïve T cells” value [3]?
Answer: Its value is 55%.

Question: What about the “Percent positive staining, CD8 memory T cells” value [3] of the same molecule?
Answer: The value was 36%.

Question: What about the “Percent positive staining, CD8 naïve T cells” value [3] of the same molecule?
Answer: The value was 53%.

Question: What about the “Percent positive staining, CD19+ B cells” value [3] of the same molecule?
Answer: Its value is 85%.

Question: What about the “Percent positive staining, Eosinophils” value [3] of the same molecule?
Answer: The value was 91%.

Question: And the “Percent positive staining, Monocytes” value [3]?
Answer: Its value is 7%.

Question: What about the “Percent positive staining, NK cells CD16+ 56+” value [3] of the same molecule?
Answer: The value was 42%.

Question: And the “Percent positive staining, Neutrophils” value [3]?
Answer: Its value is 0.45%.
